Data reported in patent US20180153870A1, “BIPERIDEN FOR TREATING CANCER” (Universitätsklinikum Hamburg-Eppendorf, priority 2015, published 2018).

How the values were obtained:
HPDE = test: MTT proliferation assay, HPDE reference cell line; format: cell-based, human; conditions: for reaction of proliferation: mepazine, other doses of biperiden or a combination of mepazine and biperiden
Protocol: The cell lines used for the proliferation assays were cultured in different media. The cell lines Pan-1, Panc-2 and BxPC3, which have been derived from the human ductal pancreatic adenocarcinoma (PDAC), were cultured in Dulbecco's modified Eagle medium (DMEM) (Sigma), that was supplemented with 1% penicillin/streptomycin (Life technologies/GIBCO 15140-122) and 10% fetal bovine serum (Life technologies/GIBCO 100500-064). The cell line L3.6pl was cultured in RPMI 1640 medium (Life technologies/GIBCO 72400-21) that was supplemented with 1% penicillin/streptomycin and 10% fetal bovine serum. A sub-clone of the cell line L3.6pl, that was designated L3.6pl res, was resistant to gemcitabine and was also cultured in RPMI 1640 medium (Life technologies/GIBCO 72400-21) that was supplemented with 1% penicillin/streptomycin, 10% fetal bovine serum and 2 μM gemcitabine (GEMZAR, Lily). The human immortalized, non-malignant cell line of the ductal pancreatic epithelium (HPDE) was cultured in keratinocyte-SFM (Life technologies/GIBCO) that was supplemented with 10% fetal bovine serum, 1% penicillin/streptomycin and 1% epidermal growth factor (EGF).
The proliferation rates of the cell lines were determined after stimulation with (i) biperiden, (ii) mepazine, and (iii) stimulation with both active ingredients. For this purpose, cells were seeded in plates with 96 wells at 5000 cells per well and incubated overnight at 37° C. and 5% CO2. Next morning, the blanket values were measured at 490 nm in an ELISA reader (FLUOstar Omega, BMG LABTECH) after the addition of 100 μL medium and 20 μL MTT substrate (CellTiter 96 AQueous One Solution Cell Proliferation Assay, Promega). Biperiden was added in increasing concentrations (3.71 μg/ml, 11.1 μg/ml und 29.6 μg/ml) in the form of solutions of biperiden hydrochloride (B5311 SIGMA-Aldrich, USA) and DMSO. […] The ex-tinction was measured every 24 hours during a period of 72 hours.
The normal distribution of the results was analyzed by Kolgomorov-Smirnov test and Shapiro-Wilk test. Non-parametric variables were analyzed using the Mann-Whitney-U test. […]

[1] = tested on: lung carcinoma cell lines A549 und H1299; test: MTT proliferation assay, lung carcinoma cell lines; format: cell-based, human; conditions: concentrations as in Example 1
Protocol: The proliferation rates of the cell lines were determined after stimulation with (i) biperiden, (ii) mepazine, and (iii) stimulation with both active ingredients. For this purpose, cells were seeded in plates with 96 wells at 5000 cells per well and incubated overnight at 37° C. and 5% CO2. Next morning, the blanket values were measured at 490 nm in an ELISA reader (FLUOstar Omega, BMG LABTECH) after the addition of 100 μL medium and 20 μL MTT substrate (CellTiter 96 AQueous One Solution Cell Proliferation Assay, Promega). Biperiden was added in increasing concentrations (3.71 μg/ml, 11.1 μg/ml und 29.6 μg/ml) in the form of solutions of biperiden hydrochloride (B5311 SIGMA-Aldrich, USA) and DMSO. Mepazine was added in increasing concentrations (15 μM and 25 μM) in the form of solutions of mepazine hydrochloride (MALT1 Inhibitor II, Calbiochem Merck, Millipore Billerica, USA). Combinations of both mepazine and biperiden were added in the following concentrations: 15 μM mepazine+3.71 μg/ml biperiden; 25 μM mepazine+3.71 μg/ml biperiden. The ex-tinction was measured every 24 hours during a period of 72 hours. […]

Structure (SMILES): CN1CCCC(CN2c3ccccc3Sc3ccccc32)C1 (centres unmarked) [mepazine]
- reaction of proliferation (HPDE): no statistically significant reaction
- proliferation of lung carcinoma cell lines [1]: inhibited proliferation

Structure (SMILES): OC(CCN1CCCCC1)(c1ccccc1)C1CC2C=CC1C2 (centres unmarked) [biperiden]
- proliferation (HPDE; 11.1 μg/ml biperiden): reduced slightly
- reaction of proliferation (HPDE): no statistically significant reaction
- proliferation of lung carcinoma cell lines [1]: inhibited proliferation
